Test results taken from patent publication US8173689B2 (Novartis AG, priority 2006, dated 2012).
Like-named read-outs stand apart in the source and are kept apart here.

Legend:
kinase domain of PDGFRβ = target: T1, kinase domain of PDGFRβ (Homo sapiens, UniProt P09619); assay: Inhibition of PDGFRb kinase signaling in an in vitro biochemical assay (alphascreen); details: tested at about 1 μM, read-out: PDGFRβ percent inhibition
T1 construct: The kinase domain of PDGFRβ was assayed in 50 mM Hepes; purchased Invitrogen P3082

[1] = test system: MNFS60 (murine AML cells); assay: Cell viability assay in MCSF dependent MNFS60 cells (Cell Titer Glo); type: cell-based; details: Mus musculus, tested at about 1 μM, read-out: M-NFS-60 CP percent inhibition
Method in brief: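 Compounds were serially diluted 3-fold in DMSO to 500× final and added to cells with MCSF at 10 ng/ml final. After 72 hrs at 37° C. under 5% CO2, viable cells were quantified by CellTiter-Glo luminescence; triplicate wells gave EC50 values by curve fitting.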

[2] = target: T2, full-length human CSF-1R receptor (Homo sapiens, UniProt P07333); assay: In vitro inhibition of CSF-1R receptor tyrosine phosphorylation in transfected HEK293H cells stimulated with MCSF; type: cell-based; details: HEK293-H, tested at about 1 μM, read-out: pCSF1R percent inhibition
T2 construct: transfected with the full-length human CSF-1R receptor cloned in house; expressed in transfected cells; host or cells: HEK293H (Invitrogen Cat. #11631017)
Description: The lysate was then transferred to total CSF-1R antibody coated 96-well plates that had already been blocked with 3% Blocker A from Mesoscale discovery (MSD) for 2 hours and washed afterwards. Lysates were incubated overnight at 4° C. and the plates were then washed 4× with MSD Tris Wash Buffer. […] The plates were read on the Sector 6000 instrument (MSD). Raw data was imported in Abase and EC50s calculated with XL-fit data analysis software.

kinase domain of cKIT = target: T3, kinase domain of cKIT (Homo sapiens, UniProt P10721); assay: Inhibition of cKIT kinase signaling in an in vitro biochemical assay (alphascreen); details: tested at about 1 μM, read-out: cKit percent inhibition
T3 construct: The kinase domain of cKIT was assayed in 50 mM Hepes; purchased Upstate 14-559

[3] = target: T4, cytoplasmic domain of the human CSF-1R (Homo sapiens, UniProt P07333); assay: In vitro kinase assay for colony stimulating factor-1 receptor (AlphaScreen); type: biochemical; details: tested at about 1 μM, read-out: CSF-1R percent inhibition
T4 construct: Recombinant protein corresponding to the cytoplasmic domain of the human CSF-1R; purchased Invitrogen Corporation, Carlsbad, Calif; PV3249
T4 sequence (P07333 539-972 limits assumed): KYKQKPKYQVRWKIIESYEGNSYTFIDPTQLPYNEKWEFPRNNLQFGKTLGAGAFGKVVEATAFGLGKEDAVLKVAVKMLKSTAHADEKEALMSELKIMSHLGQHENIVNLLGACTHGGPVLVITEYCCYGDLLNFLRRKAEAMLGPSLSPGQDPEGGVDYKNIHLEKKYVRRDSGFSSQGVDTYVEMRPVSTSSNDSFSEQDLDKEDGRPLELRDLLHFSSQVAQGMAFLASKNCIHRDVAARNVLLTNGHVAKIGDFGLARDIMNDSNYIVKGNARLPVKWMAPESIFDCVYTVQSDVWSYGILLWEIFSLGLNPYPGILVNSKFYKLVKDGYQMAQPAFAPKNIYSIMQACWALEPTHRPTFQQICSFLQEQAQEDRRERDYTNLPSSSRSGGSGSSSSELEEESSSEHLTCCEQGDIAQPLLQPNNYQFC
Method in brief: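 Tyrosine phosphorylation of a peptide substrate by 4 nM recombinant cytoplasmic-domain enzyme is measured at 1 μM ATP in Mn2+/Mg2+-containing Hepes buffer, pH 7.5. Detection uses PT66 AlphaScreen beads after overnight incubation.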

T3 sequence (P10721 589-937 limits assumed): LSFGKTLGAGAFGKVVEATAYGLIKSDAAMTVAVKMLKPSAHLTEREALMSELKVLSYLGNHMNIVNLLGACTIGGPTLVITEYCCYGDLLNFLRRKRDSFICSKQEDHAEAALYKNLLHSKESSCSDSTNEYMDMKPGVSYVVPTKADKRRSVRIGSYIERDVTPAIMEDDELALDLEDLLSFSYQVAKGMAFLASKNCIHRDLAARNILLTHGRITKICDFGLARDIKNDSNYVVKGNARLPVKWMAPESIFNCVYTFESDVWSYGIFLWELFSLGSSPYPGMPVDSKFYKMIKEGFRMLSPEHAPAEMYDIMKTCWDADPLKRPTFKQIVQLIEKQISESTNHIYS
T2 sequence (P07333 20-972): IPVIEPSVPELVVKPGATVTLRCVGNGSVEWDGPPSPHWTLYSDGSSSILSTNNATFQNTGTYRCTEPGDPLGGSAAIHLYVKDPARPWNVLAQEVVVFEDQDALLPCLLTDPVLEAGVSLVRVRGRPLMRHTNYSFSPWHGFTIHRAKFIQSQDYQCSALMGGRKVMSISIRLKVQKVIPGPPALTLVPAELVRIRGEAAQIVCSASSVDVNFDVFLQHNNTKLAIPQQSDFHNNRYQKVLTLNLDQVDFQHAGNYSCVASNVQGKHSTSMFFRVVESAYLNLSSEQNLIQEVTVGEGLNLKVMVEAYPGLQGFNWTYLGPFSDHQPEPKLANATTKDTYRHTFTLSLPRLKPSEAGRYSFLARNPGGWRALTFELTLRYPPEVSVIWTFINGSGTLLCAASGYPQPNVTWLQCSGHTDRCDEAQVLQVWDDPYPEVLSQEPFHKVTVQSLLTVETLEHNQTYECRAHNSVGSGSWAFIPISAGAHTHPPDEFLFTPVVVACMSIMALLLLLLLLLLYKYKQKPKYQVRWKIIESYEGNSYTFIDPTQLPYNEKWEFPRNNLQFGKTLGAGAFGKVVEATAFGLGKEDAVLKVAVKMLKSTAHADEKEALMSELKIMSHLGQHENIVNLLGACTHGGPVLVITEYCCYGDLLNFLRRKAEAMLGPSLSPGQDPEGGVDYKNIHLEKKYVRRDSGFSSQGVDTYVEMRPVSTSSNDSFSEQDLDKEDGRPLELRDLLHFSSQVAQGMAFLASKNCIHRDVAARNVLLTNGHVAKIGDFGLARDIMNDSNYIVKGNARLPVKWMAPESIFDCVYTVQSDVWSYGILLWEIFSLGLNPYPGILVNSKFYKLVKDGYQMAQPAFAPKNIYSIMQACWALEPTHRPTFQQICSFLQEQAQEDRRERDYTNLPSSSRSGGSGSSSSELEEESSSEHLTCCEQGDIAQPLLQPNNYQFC
T1 sequence (P09619 600-962 limits assumed): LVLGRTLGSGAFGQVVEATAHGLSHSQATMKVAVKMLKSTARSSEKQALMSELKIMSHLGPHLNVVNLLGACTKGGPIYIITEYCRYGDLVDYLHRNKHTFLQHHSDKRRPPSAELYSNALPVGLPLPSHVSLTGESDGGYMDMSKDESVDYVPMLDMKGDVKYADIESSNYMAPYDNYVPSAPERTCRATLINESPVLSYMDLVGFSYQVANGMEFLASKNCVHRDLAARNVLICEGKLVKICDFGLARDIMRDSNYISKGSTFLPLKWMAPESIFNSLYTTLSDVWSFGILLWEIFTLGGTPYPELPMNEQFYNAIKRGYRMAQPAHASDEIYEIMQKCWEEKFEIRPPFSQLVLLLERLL

| SMILES | inhibition at 1 µM (kinase domain of PDGFRβ) [%] | inhibition at 1 µM ([2]; HEK293H cells) [%] | inhibition at 1 µM (kinase domain of cKIT) [%] | inhibition at 1 µM [3] [%] | inhibition at 1 µM (kinase domain of PDGFRβ; compounds of Table 3) [%] | inhibition at 1 µM ([2]; compounds of Table 3) [%] | inhibition at 1 µM (kinase domain of cKIT; compounds of Table 3) [%] | inhibition at 1 µM ([3]; compounds of Table 3) [%] | inhibition at 1 µM ([1]; MNFS60 cells) [%] | inhibition at 1 µM ([1]; compounds of Table 3) [%] |
| --- | --- | --- | --- | --- | --- | --- | --- | --- | --- | --- |
| CNC(=O)c1cc(Oc2ccc3nc(NCc4cccc(F)c4F)oc3c2)ccn1 [Compound 79, 4-[2-(2,3-Difluoro-benzylamino)-benzooxazol-6-yloxy]-pyridine-2-carboxylic acid methylamide] | 0 | 94 | 31 | 100 |  |  |  |  | 57 |  |
| CNC(=O)c1cc(Oc2ccc3nc(NCc4c(OC)cccc4OC)oc3c2)ccn1 [Compound 84, 4-[2-(2,6-Dimethoxy-benzyl-amino)-benzooxazol-6-yloxy]-pyridine-2-carboxylic acid methylamide] | 0 | 44 | 12 | 99 |  |  |  |  | 32 |  |
| CNC(=O)c1cc(Oc2ccc3nc(NC4CCCCNC4=O)sc3c2)ccn1 (stereo not drawn) [Compound 93] |  |  |  |  | 0 | 47 | 12 | 100 |  | 23 |
| CNC(=O)c1cc(Oc2ccc3nc(NC(CO)C4CCOCC4)sc3c2)ccn1 (stereo not drawn) [Compound 95] |  |  |  |  | 2 | 65 | 0 | 100 |  | 60 |
| CNC(=O)c1cc(Oc2ccc3nc(NCc4ccccc4C(F)(F)F)oc3c2)ccn1 [Compound 97, 4-[2-(2-Trifluoromethyl-benzylamino)-benzooxazol-6-yloxy]-pyridine-2-carboxylic acid methylamide] | 5 | 84 | 99 | 99 |  |  |  |  | 67 |  |
| CNC(=O)c1cc(Oc2ccc3nc(NCC4CCCCCC4)oc3c2)ccn1 [Compound 101, 4-[2-(Cycloheptylmethyl-amino)-benzooxazol-6-yloxy]-pyridine-2-carboxylic acid methylamide] | 91 | 91 | 85 | 99 |  |  |  |  | 85 |  |
| CNC(=O)c1cc(Oc2ccc3nc(NC4CCCc5ccccc54)oc3c2)ccn1 (stereo not drawn) [Compound 104, 4-[2-(1,2,3,4-Tetrahydro-naphthalen-1-ylamino)-benzooxazol-6-yloxy]-pyridine-2-carboxylic acid methylamide] | 10 | 63 | 18 | 99 |  |  |  |  | 47 |  |
| CNC(=O)c1cc(Oc2ccc3nc(NCc4ccccc4-n4cccn4)oc3c2)ccn1 [Compound 105, 4-[2-(2-Pyrazol-1-yl-benzyl-amino)-benzooxazol-6-yloxy]-pyridine-2-carboxylic acid methylamide] | 8 | 70 | 22 | 99 |  |  |  |  | 49 |  |
| CNC(=O)c1cc(Oc2ccc3nc(NCc4cccc5c4OCCCO5)oc3c2)ccn1 [Compound 108, 4-{2-[(3,4-Dihydro-2H-benzo[b][1,4]dioxepin-6-ylmethyl)-amino]-benzooxazol-6-yloxy}-pyridine-2-carboxylic acid methylamide] | 40 | 98 | 100 | 99 |  |  |  |  | 100 |  |
| Cc1cnc(-c2cc(Oc3ccc4nc(NCC5CCCCC5)oc4c3)ccn2)[nH]1 [Compound 109, Cyclohexylmethyl-{6-[2-(5-methyl-1H-imidazol-2-yl)-pyridin-4-yloxy]-benzooxazol-2-yl}-amine] | 75 | 90 | 53 | 100 |  |  |  |  | 81 |  |
| CNC(=O)c1cc(Oc2ccc3nc(NCc4ccc5c(c4)CCO5)oc3c2)ccn1 [Compound 124, 4-{2-[(2,3-Dihydro-benzofuran-5-ylmethyl)-amino]-benzooxazol-6-yloxy}-pyridine-2-carboxylic acid methylamide] | 0 | 94 | 32 | 99 |  |  |  |  | 51 |  |
| CNC(=O)c1cc(Oc2ccc3nc(NC(C)c4cccc5c4OCCO5)oc3c2)ccn1 (stereo not drawn) [Compound 125, 4-{2-[1-(2,3-Dihydro-benzo-[1,4]dioxin-5-yl)-ethylamino]-benzooxazol-6-yloxy}-pyridine-2-carboxylic acid methylamide] | 0 | 45 | 35 | 100 |  |  |  |  | 44 |  |
| CNC(=O)c1cc(Oc2ccc3nc(N[C@@H]4C[C@H]5CC[C@@H]4C5)sc3c2)ccn1 [Compound 128] |  |  |  |  | 20 | 88 | 29 | 100 |  | 82 |
| CNC(=O)c1cc(Oc2ccc3nc(N[C@H](C)c4ccccc4OC)sc3c2)ccn1 [Compound 129, 4-{2-[(R)-1-(2-Methoxy-phenyl)-ethylamino]-benzothiazol-6-yloxy}-pyridine-2-carboxylic acid methylamide] | 34 | 92 | 92 | 99 |  |  |  |  | 94 |  |

The next lines start with results.

| inhibition at 1 µM (kinase domain of PDGFRβ) [%] | inhibition at 1 µM ([2]; HEK293H cells) [%] | inhibition at 1 µM (kinase domain of cKIT) [%] | inhibition at 1 µM [3] [%] | inhibition at 1 µM (kinase domain of PDGFRβ; compounds of Table 3) [%] | inhibition at 1 µM ([2]; compounds of Table 3) [%] | inhibition at 1 µM (kinase domain of cKIT; compounds of Table 3) [%] | inhibition at 1 µM ([3]; compounds of Table 3) [%] | SMILES | inhibition at 1 µM ([1]; MNFS60 cells) [%] | inhibition at 1 µM ([1]; compounds of Table 3) [%] |
| --- | --- | --- | --- | --- | --- | --- | --- | --- | --- | --- |
|  |  |  |  | 2 | 65 | 15 | 100 | CNC(=O)c1cc(Oc2ccc3nc(NCc4ccc(=O)[nH]c4)sc3c2)ccn1 [Compound 89] |  | 15 |
| 3 | 89 | 33 | 99 |  |  |  |  | CCOc1ccccc1CNc1nc2ccc(Oc3ccnc(C(=O)NC)c3)cc2o1 [Compound 96, 4-[2-(2-Ethoxy-benzylamino)-benzooxazol-6-yloxy]-pyridine-2-carboxylic acid methylamide] | 75 |  |
|  |  |  |  | 9 | 88 | 0 | 100 | CNC(=O)c1cc(Oc2ccc3nc(N[C@H](CO)C(C)C)sc3c2)ccn1 [Compound 102] |  | 75 |
| 0 | 88 | 96 | 100 |  |  |  |  | CNC(=O)c1cc(Oc2ccc3nc(NCc4ccc(OC)c(OC)c4Cl)oc3c2)ccn1 [Compound 117, 4-[2-(2-Chloro-3,4-dimethoxy-benzylamino)-benzooxazol-6-yloxy]-pyridine-2-carboxylic acid methylamide] | 61 |  |
| 49 | 69 | 95 | 100 |  |  |  |  | CNC(=O)c1cc(Oc2ccc3nc(NCc4ccccc4N4CCCCC4)oc3c2)ccn1 [Compound 118, 4-[2-(2-Piperidin-1-yl-benzylamino)-benzooxazol-6-yloxy]-pyridine-2-carboxylic acid methylamide] | 83 |  |
| 20 | 95 | 81 | 100 |  |  |  |  | CNC(=O)c1cc(Oc2ccc3nc(NCc4ccccc4Cl)sc3c2)ccn1 [Compound 127, 4-[2-(2-Chloro-benzylamino)-benzothiazol-6-yloxy]-pyridine-2-carboxylic acid methylamide] | 95 |  |
| 83 | 95 | 90 | 100 |  |  |  |  | CNC(=O)c1cc(Oc2ccc3nc(NCC4CCCCC4)sc3c2)ccn1 [Compound 128, 4-[2-(Cyclohexylmethyl-amino)-benzothiazol-6-yloxy]-pyridine-2-carboxylic acid methylamide] | 95 |  |
